According to the supplement of paper PMC13386468:

Experiments:
Experiment in all cases: IC50 for competition of protein binding to Kinobeads
Settings in all cases: assay detail: Kinobeads competition in P. falciparum blood-stage lysate
UniProt C0H491 = molecular target: UniProt C0H491
UniProt C0H517 = molecular target: UniProt C0H517
UniProt C6KSY0 = molecular target: UniProt C6KSY0
UniProt C6KSY6 = molecular target: UniProt C6KSY6
UniProt O97282 = molecular target: UniProt O97282
UniProt Q76NN6 = molecular target: UniProt Q76NN6
UniProt Q7KQM0 = molecular target: UniProt Q7KQM0
UniProt Q8I0U8 = molecular target: UniProt Q8I0U8
UniProt Q8I1Q9 = molecular target: UniProt Q8I1Q9
UniProt Q8I1R5 = molecular target: UniProt Q8I1R5
UniProt Q8I272 = molecular target: UniProt Q8I272
UniProt Q8I2H3 = molecular target: UniProt Q8I2H3
UniProt Q8I2I2 = molecular target: UniProt Q8I2I2
UniProt Q8I2P2 = molecular target: UniProt Q8I2P2
UniProt Q8I3L4 = molecular target: UniProt Q8I3L4
UniProt Q8I3T1 = molecular target: UniProt Q8I3T1
UniProt Q8I423 = molecular target: UniProt Q8I423
UniProt Q8I492 = molecular target: UniProt Q8I492
UniProt Q8I4V8 = molecular target: UniProt Q8I4V8
UniProt Q8I527 = molecular target: UniProt Q8I527
UniProt Q8I5A9 = molecular target: UniProt Q8I5A9
UniProt Q8I5F4 = molecular target: UniProt Q8I5F4
UniProt Q8IAR3 = molecular target: UniProt Q8IAR3
UniProt Q8IB66 = molecular target: UniProt Q8IB66
UniProt Q8IB72 = molecular target: UniProt Q8IB72
UniProt Q8IDI5 = molecular target: UniProt Q8IDI5
UniProt Q8IDJ4 = molecular target: UniProt Q8IDJ4
UniProt Q8IDN6 = molecular target: UniProt Q8IDN6
UniProt Q8IDR9 = molecular target: UniProt Q8IDR9
UniProt Q8IDW1 = molecular target: UniProt Q8IDW1
UniProt Q8IEN3 = molecular target: UniProt Q8IEN3
UniProt Q8IHR5 = molecular target: UniProt Q8IHR5
UniProt Q8II11 = molecular target: UniProt Q8II11
UniProt Q8IIH4 = molecular target: UniProt Q8IIH4
UniProt Q8III3 = molecular target: UniProt Q8III3
UniProt Q8III5 = molecular target: UniProt Q8III5
UniProt Q8IJ60 = molecular target: UniProt Q8IJ60
UniProt Q8IJN3 = molecular target: UniProt Q8IJN3
UniProt Q8IJS7 = molecular target: UniProt Q8IJS7
UniProt Q8IJW3 = molecular target: UniProt Q8IJW3
UniProt Q8IK92 = molecular target: UniProt Q8IK92
UniProt Q8IKL5 = molecular target: UniProt Q8IKL5
UniProt Q8IKN7 = molecular target: UniProt Q8IKN7
UniProt Q8IKS4 = molecular target: UniProt Q8IKS4
UniProt Q8IKV6 = molecular target: UniProt Q8IKV6
UniProt Q8IL86 = molecular target: UniProt Q8IL86
UniProt Q8ILI9 = molecular target: UniProt Q8ILI9
UniProt Q8ILL5 = molecular target: UniProt Q8ILL5
UniProt Q8ILT0 = molecular target: UniProt Q8ILT0
UniProt Q8IM16 = molecular target: UniProt Q8IM16
UniProt Q9U0N4 = molecular target: UniProt Q9U0N4
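Further: native unpurified kinases from lysate captured on beads bearing immobilized kinase inhibitors, with bead-bound kinases quantified by mass spectrometry across compound doses.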

Chain of UniProt Q8I0U8 (Q8I0U8 whole entry): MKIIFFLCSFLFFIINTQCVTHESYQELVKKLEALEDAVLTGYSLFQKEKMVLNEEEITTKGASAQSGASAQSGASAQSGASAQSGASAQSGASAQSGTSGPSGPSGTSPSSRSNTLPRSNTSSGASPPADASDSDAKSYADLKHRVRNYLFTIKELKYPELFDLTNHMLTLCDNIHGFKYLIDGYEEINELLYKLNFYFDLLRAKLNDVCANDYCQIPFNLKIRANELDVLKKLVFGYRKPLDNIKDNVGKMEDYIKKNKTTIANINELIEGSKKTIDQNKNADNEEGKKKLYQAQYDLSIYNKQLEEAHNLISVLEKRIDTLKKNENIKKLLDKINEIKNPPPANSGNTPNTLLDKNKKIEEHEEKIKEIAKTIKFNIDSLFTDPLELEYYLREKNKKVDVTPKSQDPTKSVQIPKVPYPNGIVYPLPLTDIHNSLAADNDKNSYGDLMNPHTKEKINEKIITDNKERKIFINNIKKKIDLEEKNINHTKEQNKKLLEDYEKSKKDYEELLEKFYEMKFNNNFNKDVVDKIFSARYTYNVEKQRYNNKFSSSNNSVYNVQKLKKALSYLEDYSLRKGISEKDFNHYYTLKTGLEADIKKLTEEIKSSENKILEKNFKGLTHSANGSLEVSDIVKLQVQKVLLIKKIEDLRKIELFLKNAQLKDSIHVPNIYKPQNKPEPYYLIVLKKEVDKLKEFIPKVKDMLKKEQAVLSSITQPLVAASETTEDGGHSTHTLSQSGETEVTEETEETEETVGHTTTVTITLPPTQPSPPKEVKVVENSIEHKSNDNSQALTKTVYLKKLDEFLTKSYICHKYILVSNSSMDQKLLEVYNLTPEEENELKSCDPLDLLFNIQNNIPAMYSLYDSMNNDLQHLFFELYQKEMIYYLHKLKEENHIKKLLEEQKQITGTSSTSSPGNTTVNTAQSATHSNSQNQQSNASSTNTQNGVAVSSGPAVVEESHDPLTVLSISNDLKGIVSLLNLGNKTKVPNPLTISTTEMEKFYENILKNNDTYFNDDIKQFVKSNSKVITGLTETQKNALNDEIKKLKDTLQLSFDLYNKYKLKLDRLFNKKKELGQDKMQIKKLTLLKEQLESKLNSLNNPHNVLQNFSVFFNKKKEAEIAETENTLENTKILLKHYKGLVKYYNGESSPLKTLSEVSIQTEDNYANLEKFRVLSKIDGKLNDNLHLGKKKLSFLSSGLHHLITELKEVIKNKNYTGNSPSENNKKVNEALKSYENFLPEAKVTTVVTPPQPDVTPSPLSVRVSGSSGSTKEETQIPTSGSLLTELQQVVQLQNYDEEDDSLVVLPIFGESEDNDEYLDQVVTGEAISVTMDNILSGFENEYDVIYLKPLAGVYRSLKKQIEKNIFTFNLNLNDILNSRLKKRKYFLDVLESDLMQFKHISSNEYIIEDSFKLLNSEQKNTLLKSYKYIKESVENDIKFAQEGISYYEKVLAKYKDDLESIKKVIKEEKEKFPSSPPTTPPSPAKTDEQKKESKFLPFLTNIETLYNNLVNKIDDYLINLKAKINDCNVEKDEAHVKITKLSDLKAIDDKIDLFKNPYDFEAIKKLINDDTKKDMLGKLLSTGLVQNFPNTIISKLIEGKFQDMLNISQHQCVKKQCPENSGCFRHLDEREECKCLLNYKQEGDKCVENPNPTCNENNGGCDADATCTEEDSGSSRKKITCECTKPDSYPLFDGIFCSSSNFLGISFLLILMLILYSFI
Chain of UniProt Q8IM16 (Q8IM16 whole entry): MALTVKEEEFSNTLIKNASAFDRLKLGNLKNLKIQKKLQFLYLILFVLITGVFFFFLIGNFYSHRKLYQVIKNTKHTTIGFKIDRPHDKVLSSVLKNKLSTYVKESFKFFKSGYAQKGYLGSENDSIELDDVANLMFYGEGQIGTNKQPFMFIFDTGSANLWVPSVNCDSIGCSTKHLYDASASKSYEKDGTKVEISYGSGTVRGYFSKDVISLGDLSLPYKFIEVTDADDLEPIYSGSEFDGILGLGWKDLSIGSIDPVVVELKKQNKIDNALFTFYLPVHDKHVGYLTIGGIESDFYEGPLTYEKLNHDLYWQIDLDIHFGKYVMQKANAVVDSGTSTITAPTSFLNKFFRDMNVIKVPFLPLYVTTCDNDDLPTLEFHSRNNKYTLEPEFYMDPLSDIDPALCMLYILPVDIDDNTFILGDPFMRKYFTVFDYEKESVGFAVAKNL
Chain of UniProt Q8I423 (Q8I423 whole entry): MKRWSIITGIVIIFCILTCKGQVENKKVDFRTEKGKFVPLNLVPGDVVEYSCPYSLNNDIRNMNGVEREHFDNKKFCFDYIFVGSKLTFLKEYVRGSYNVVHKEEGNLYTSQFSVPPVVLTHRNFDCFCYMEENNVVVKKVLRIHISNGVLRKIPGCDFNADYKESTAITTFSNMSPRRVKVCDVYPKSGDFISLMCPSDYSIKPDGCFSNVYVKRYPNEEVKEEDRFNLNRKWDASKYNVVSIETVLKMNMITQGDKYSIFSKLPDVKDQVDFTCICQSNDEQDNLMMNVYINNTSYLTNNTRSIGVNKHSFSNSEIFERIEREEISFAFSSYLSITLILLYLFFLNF
Chain of UniProt Q7KQM0 (Q7KQM0 whole entry): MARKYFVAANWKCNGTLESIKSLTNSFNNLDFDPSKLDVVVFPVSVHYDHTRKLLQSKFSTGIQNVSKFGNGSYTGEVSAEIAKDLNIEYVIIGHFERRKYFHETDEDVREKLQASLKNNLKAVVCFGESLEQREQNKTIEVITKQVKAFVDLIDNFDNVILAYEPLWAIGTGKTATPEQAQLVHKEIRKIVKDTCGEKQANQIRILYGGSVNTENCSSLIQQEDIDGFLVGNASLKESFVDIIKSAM
Chain of UniProt Q8I4V8 (Q8I4V8 whole entry): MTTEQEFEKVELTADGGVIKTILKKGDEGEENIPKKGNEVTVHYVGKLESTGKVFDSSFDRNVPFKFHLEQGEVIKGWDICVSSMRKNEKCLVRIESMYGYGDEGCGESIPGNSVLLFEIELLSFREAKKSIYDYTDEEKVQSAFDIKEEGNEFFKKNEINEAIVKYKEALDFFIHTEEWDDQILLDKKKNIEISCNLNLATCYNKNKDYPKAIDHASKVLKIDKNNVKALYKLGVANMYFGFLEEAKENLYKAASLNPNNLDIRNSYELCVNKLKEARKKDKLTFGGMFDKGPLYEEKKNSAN

Which IC50 (UniProt C0H491) does the source give for `O=c1[nH]c2ccc(Cl)cc2c(NC2CN3CCC2CC3)c1-c1nc2ccccc2[nH]1` (stereo unspecified) [CHIR-124] here?
Its IC50 is over 20 µM.

What about the IC50 (UniProt C0H517) of the same molecule?
The IC50 was over 20 µM.

And the IC50 (UniProt C6KSY0)?
Its IC50 is over 20 µM.

What about the IC50 (UniProt C6KSY6) of the same molecule?
The IC50 was over 20 µM.

And the IC50 (UniProt O97282)?
The IC50 was over 20 µM.

And the IC50 (UniProt Q76NN6)?
Its IC50 is over 20 µM.

And the IC50 (UniProt Q7KQM0)?
The IC50 was over 20 µM.

And the IC50 (UniProt Q8I0U8)?
The IC50 was over 20 µM.

And the IC50 (UniProt Q8I1Q9)?
Its IC50 is over 20 µM.

What about the IC50 (UniProt Q8I1R5) of the same molecule?
Its IC50 is over 20 µM.

And the IC50 (UniProt Q8I272)?
Its IC50 is over 20 µM.

And the IC50 (UniProt Q8I2H3)?
The IC50 was over 20 µM.

What about the IC50 (UniProt Q8I2I2) of the same molecule?
The IC50 was over 20 µM.

What about the IC50 (UniProt Q8I2P2) of the same molecule?
The IC50 was over 20 µM.

What about the IC50 (UniProt Q8I3L4) of the same molecule?
The IC50 was over 20 µM.

What about the IC50 (UniProt Q8I3T1) of the same molecule?
The IC50 was over 20 µM.

And the IC50 (UniProt Q8I423)?
The IC50 was over 20 µM.

What about the IC50 (UniProt Q8I492) of the same molecule?
Its IC50 is over 20 µM.

What about the IC50 (UniProt Q8I4V8) of the same molecule?
The IC50 was over 20 µM.

What about the IC50 (UniProt Q8I527) of the same molecule?
Its IC50 is over 20 µM.

And the IC50 (UniProt Q8I5A9)?
Its IC50 is over 20 µM.

And the IC50 (UniProt Q8I5F4)?
The IC50 was over 20 µM.

What about the IC50 (UniProt Q8IAR3) of the same molecule?
Its IC50 is over 20 µM.

What about the IC50 (UniProt Q8IB66) of the same molecule?
The IC50 was over 20 µM.

And the IC50 (UniProt Q8IB72)?
The IC50 was over 20 µM.

And the IC50 (UniProt Q8IDI5)?
Its IC50 is over 20 µM.

What about the IC50 (UniProt Q8IDJ4) of the same molecule?
The IC50 was over 20 µM.

And the IC50 (UniProt Q8IDN6)?
Its IC50 is over 20 µM.

And the IC50 (UniProt Q8IDR9)?
Its IC50 is over 20 µM.

What about the IC50 (UniProt Q8IDW1) of the same molecule?
The IC50 was over 20 µM.

And the IC50 (UniProt Q8IEN3)?
Its IC50 is over 20 µM.

What about the IC50 (UniProt Q8IHR5) of the same molecule?
Its IC50 is over 20 µM.

What about the IC50 (UniProt Q8II11) of the same molecule?
Its IC50 is under 0.0823 µM.

What about the IC50 (UniProt Q8IIH4) of the same molecule?
The IC50 was over 20 µM.

What about the IC50 (UniProt Q8III3) of the same molecule?
The IC50 was over 20 µM.

What about the IC50 (UniProt Q8III5) of the same molecule?
Its IC50 is over 20 µM.

And the IC50 (UniProt Q8IJ60)?
Its IC50 is over 20 µM.

And the IC50 (UniProt Q8IJN3)?
Its IC50 is over 20 µM.

What about the IC50 (UniProt Q8IJS7) of the same molecule?
Its IC50 is over 20 µM.

What about the IC50 (UniProt Q8IJW3) of the same molecule?
Its IC50 is over 20 µM.

And the IC50 (UniProt Q8IK92)?
Its IC50 is over 20 µM.

What about the IC50 (UniProt Q8IKL5) of the same molecule?
The IC50 was over 20 µM.

What about the IC50 (UniProt Q8IKN7) of the same molecule?
Its IC50 is over 20 µM.

What about the IC50 (UniProt Q8IKS4) of the same molecule?
Its IC50 is over 20 µM.

What about the IC50 (UniProt Q8IKV6) of the same molecule?
The IC50 was over 20 µM.

And the IC50 (UniProt Q8IL86)?
The IC50 was over 20 µM.

What about the IC50 (UniProt Q8ILI9) of the same molecule?
The IC50 was over 20 µM.

What about the IC50 (UniProt Q8ILL5) of the same molecule?
The IC50 was over 20 µM.

And the IC50 (UniProt Q8ILT0)?
Its IC50 is over 20 µM.

And the IC50 (UniProt Q8IM16)?
The IC50 was over 20 µM.

What about the IC50 (UniProt Q9U0N4) of the same molecule?
Its IC50 is over 20 µM.
